According to patent EP4813381A1, “PHARMACEUTICAL USE OF GUAIANE SESQUITERPENE DERIVATIVE” (Nanjing University Of Chinese Medicine, priority 2023, dated 2025):

Legend:
[1] = test system: fibrosis-related factors (Acta2, Col1a1, Tgfb1); test: CCl4 acute liver injury model in mice: Q-PCR of fibrosis-related factors in liver; format: in vivo, C57BL/6 mice; details: liver mRNA
Experimental: They were acclimated for 7 days before use in experiments. • Experimental Methods: Establishment of Acute Liver Injury Model in Mice and Group-Specific Drug Administration • Mice were randomly assigned to groups. One group was arbitrarily designated as the normal group, while the remaining groups served as model group, Compound 1 group, Hydrochloride 20 group, Fumarate 21 group, and Silibinin group, with 6 mice per group. Except for the normal group receiving 10 mL olive oil/kg via injection, all other mice received 0.5 mL CCl4 + 9.5 mL olive oil/kg body weight via intraperitoneal injection, maintaining a CCl4 to olive oil ratio of 1:19. Starting from day 1 of modeling, Compound 1, Hydrochloride 20, and Fumarate 21 were administered orally for 3 consecutive days. […] The blood was allowed to stand at room temperature for 2 hours, then centrifuged at 3000 rpm for 20 minutes. Serum was aspirated, aliquoted, and stored at -70 °C for future use. After blood collection, euthanize mice by cervical dislocation. Perform laparotomy to remove the liver. Rinse twice with pre-chilled PBS. Excise the left hepatic lobe tissue. […] Store remaining tissue at -70 °C for future use. • Serum AST and ALT Assay: Use 10 µL of each sample for testing. Determine mouse serum AST and ALT levels according to the operating manual. Measure absorbance at 510 nm using an enzyme-linked immunosorbent assay (ELISA) reader. Calculate sample concentration (U/L) based on the standard curve.
Q-PCR Analysis: Tissue total RNA extraction, cDNA synthesis, and PCR amplification methods are identical to Example 4. Additional primer information is as follows:
Data Statistics: All data are expressed as means ± standard error of the mean (S.E.M.). Differences were analyzed for significance using analysis of variance (ANOVA). For groups showing significant differences in ANOVA, one-way ANOVA followed by Dunnett's test was performed to compare intergroup differences.

[2] = test system: MC903-induced atopic dermatitis (AD); test: MC903-induced ear atopic dermatitis mouse model, Compound 1 ointment: ear thickness and dermatitis score; format: in vivo, mice; details: for inhibition rate (ear thickness): final day; for Dermatitis Score: ear, score max 12
Experimental: Weigh white petrolatum, light liquid paraffin, glyceryl monostearate, ethylparaben, and cetyl alcohol. Heat to 65 °C while stirring until dissolved. Slowly add the dissolved active pharmaceutical ingredient (API) while continuing to stir until uniformly mixed. Set aside. • (2) Aqueous Phase Preparation: […] Slowly add the aqueous phase to the oil phase while maintaining 65 °C, homogenize, and continue stirring for 30 min; • (4) Cooling: Stop heating, continue stirring, gradually reduce to room temperature, cool to form an ointment, and fill containers. […] Dissolve these substances in a small amount of propylene glycol, then place the resulting solution into the aforementioned pre-cooled blank ointment base. […] Skin Lesion Severity Score: […] Statistical analysis was performed on the data.

[3] = test system: Th2-related factors Il4, Il13, Il31 and inflammatory factors Tslp, Tnf, Il1; test: MC903-induced ear atopic dermatitis mouse model, Compound 1 ointment: Q-PCR of ear; format: in vivo; set-up: unit not given here; details: ear mRNA, AD mice
Experimental: Except for the Normal group, all other groups underwent AD modeling: 20 µL of MC903 solution (also known as calcipotriol, purchased from Shanghai Yuanye Biotechnology Co., Ltd., used for inducing atopic models) was applied to each mouse's ears once daily for 14 consecutive days to induce the atopic dermatitis model. […] Measure ear thickness changes every 2 days using an electronic caliper before modeling and after treatment initiation.

MDSCs and T cells = test: T cell proliferation in a co-culture model of MDSCs and T cells (flow cytometry); format: cell-based, mice; details: MDSCs treated with 1 µM compound for 12 h, 48 h co-culture with T cells (1:1), compared to the control group
Experimental: Under sterile conditions, the tibia was removed, both ends of the bone were cut, and bone marrow was repeatedly flushed into a 15 mL centrifuge tube using a 1 mL syringe filled with culture medium. Centrifuge at 1600 rpm for 5 min to collect bone marrow cells. […] The spleen cell suspension was then transferred into a 15 mL centrifuge tube. Centrifuge at 1600 rpm for 5 min to collect T cells. Wash twice with 1×PBS. Resuspend the centrifuged T cells in 1 mL PBS and add 1 mL of 10 µM CFDA-SE solution. Incubate at room temperature for 8 min. […] After drug administration, collect MDSC cells into centrifuge tubes. Centrifuge at 1600 rpm for 5 min, remove supernatant, resuspend in 1 mL fresh medium, and plate. Add 1 mL stimulated activated T cells (1:1 ratio) for 48 h co-culture. After incubation, collect cells into centrifuge tubes, wash twice with PBS, and incubate with Fc antibody at room temperature in the dark for 10 min. Add CD3-labeled flow cytometry antibody and incubate at 4 °C in the dark for 30 min. After incubation, wash cells with PBS, resuspend in 300 µL PBS, and analyze by flow cytometry.

## C=C1C(=O)O[C@@H]2[C@@H]3[C@]4(CC[C@@]3(C)O)C[C@]4(C)CC[C@@H]12 [compound 1]
[1]; oral 0.1 mg/kg
  Acta2: 3.82±0.88
  Col1a1: 2.28±0.80
  Tgfb1: 1.39±0.58
[1]; oral 1 mg/kg
  Acta2: 2.34±0.16
  Col1a1: 1.40±0.31
  Tgfb1: 1.08±0.21
[2]; 0.01% Compound 1 ointment
  inhibition rate (ear thickness): 71%
[2]; 0.01% ointment, Day 1
  ear thickness: 0.14±0.00 mm
[2]; 0.01% ointment, Day 3
  ear thickness: 0.17±0.00 mm
[2]; 0.01% ointment, Day 5
  ear thickness: 0.21±0.00 mm
[2]; 0.01% ointment, Day 7
  ear thickness: 0.22±0.00 mm
[2]; 0.01% ointment, Day 8
  ear thickness: 0.23±0.01 mm
[2]; 0.01% ointment, Day 9
  ear thickness: 0.23±0.01 mm
[2]; 0.01% ointment, Day 10
  ear thickness: 0.25±0.00 mm
[2]; 0.01% ointment, Day 11
  ear thickness: 0.26±0.01 mm
[2]; 0.01% ointment, Day 12
  ear thickness: 0.26±0.01 mm
[2]; 0.01% ointment, Day 13
  ear thickness: 0.22±0.01 mm
[2]; 0.01% ointment, Day 14
  ear thickness: 0.21±0.01 mm
[2]; 0.1% Compound 1 ointment
  inhibition rate (ear thickness): 71%
[2]; 0.1% ointment, Day 1
  ear thickness: 0.14±0.00 mm
[2]; 0.1% ointment, Day 3
  ear thickness: 0.17±0.00 mm
[2]; 0.1% ointment, Day 5
  ear thickness: 0.21±0.00 mm
[2]; 0.1% ointment, Day 7
  ear thickness: 0.21±0.00 mm
[2]; 0.1% ointment, Day 8
  ear thickness: 0.23±0.00 mm
[2]; 0.1% ointment, Day 9
  ear thickness: 0.23±0.00 mm
[2]; 0.1% ointment, Day 10
  ear thickness: 0.23±0.00 mm
[2]; 0.1% ointment, Day 11
  ear thickness: 0.24±0.01 mm
[2]; 0.1% ointment, Day 12
  ear thickness: 0.24±0.01 mm
[2]; 0.1% ointment, Day 13
  ear thickness: 0.21±0.01 mm
[2]; 0.1% ointment, Day 14
  ear thickness: 0.21±0.01 mm
[2]; 1% Compound 1 ointment
  inhibition rate (ear thickness): 80%
[2]; 1% ointment, Day 1
  ear thickness: 0.15±0.00 mm
[2]; 1% ointment, Day 3
  ear thickness: 0.17±0.00 mm
[2]; 1% ointment, Day 5
  ear thickness: 0.21±0.00 mm
[2]; 1% ointment, Day 7
  ear thickness: 0.22±0.01 mm
[2]; 1% ointment, Day 8
  ear thickness: 0.22±0.01 mm
[2]; 1% ointment, Day 9
  ear thickness: 0.23±0.01 mm
[2]; 1% ointment, Day 10
  ear thickness: 0.23±0.01 mm
[2]; 1% ointment, Day 11
  ear thickness: 0.24±0.00 mm
[2]; 1% ointment, Day 12
  ear thickness: 0.23±0.01 mm
[2]; 1% ointment, Day 13
  ear thickness: 0.20±0.00 mm
[2]; 1% ointment, Day 14
  ear thickness: 0.19±0.00 mm
[2]; 0.01% ointment for 7 days
  Dermatitis Score: 3.50±0.22
[2]; 0.1% ointment for 7 days
  Dermatitis Score: 2.67±0.21
[2]; 1% ointment for 7 days
  Dermatitis Score: 2.33±0.33
[3]; 0.01% ointment
  Il1: 19.67 ± 5.26
  Il4: 3.62 ±0.97
  Il13: 3.30 ±0.47
  Il31: 2.31 ±0.28
  TSLP: 2.24 ±0.25
  Tnf: 2.35 ±0.39
[3]; 0.1% ointment
  Il1: 9.89 ±3.44
  Il4: 1.95 ±0.66
  Il13: 2.85 ±0.48
  Il31: 1.64 ±0.25
  TSLP: 1.42 ±0.16
  Tnf: 1.34 ±0.41
[3]; 1% ointment
  Il1: 5.69±1.12
  Il4: 1.17±0.37
  Il13: 1.56±0.20
  Il31: 1.10±0.19
  TSLP: 1.12±0.07
  Tnf: 1.01±0.40

## CN(C)C[C@@H]1C(=O)O[C@H]2[C@H]1CC[C@@]1(C)C[C@]13CC[C@@](C)(O)[C@H]23 [compound 20]
MDSCs and T cells
  T-cell proliferation rate (%): + (T-cell proliferation rate within the 0-20% range compared to the control group)
